Test results: patent US20060079493A1, “Methods for treating genetically- defined proliferative disorders with hsp90 inhibitors” (priority 2001, published 2006)
Read-outs that look alike come from different tables or passages of the source.

How the values were obtained:
RPTEC = assay: MTS assay, cytotoxicity (growth inhibition) on normal cells RPTEC; type: cell-based; conditions: for Metabolic Activity RPTEC: MTS, 3-6 days, DMSO control = 100%; for IC50: read-out: RPTEC IC50
Method: (§1) To K562 cells (suspension grown in DMEM media supplemented w/10% Fetal Bovine Serum (FBS) and 1 mM HEPES; subcultured biweekly at 100K cells/ml) in a 96 well plate (0.1 ml medium; 2000 cells per well) were added various concentrations of 17-AAG (CF7) and the effects measured over a period of 3-6 days using an MTS assay protocol similar to that offered by Promega Corp (Madison, Wis., US; cat# G5421).
(§2) The MTS assay is a colorimetric assay for determining the number of viable cells in proliferation, cytotoxicity or chemosensitivity assays. The CellTiter 96® AQueous Assay is composed of solutions of tetrazolium compound (3-(4,5-dimethylthiazol-2-yl)-5-(3-carboxymethoxyphenyl)-2-(4-sulfophenyl)-2H-tetrazolium, inner salt; MTS) and an electron coupling reagent (phenazine methosulfate) PMS. MTS is bioreduced by cells into a formazan that is soluble in tissue culture medium. Barltrop et al. (1991) Bioorg. & Med. Chem. Lett. 1, 611. The absorbance of the formazan at 490 nm can be measured directly from 96 well assay plates without additional processing. Cory et al. (1991) Cancer Commun. 3, 207; Riss, T. L. and Moravec, R. A. (1992) Mol. Biol. Cell 3 (Suppl.), 184a. The conversion of MTS into the aqueous soluble formazan is accomplished by dehydrogenase enzymes found in metabolically active cells. The quantity of formazan product as measured by the amount of 490 nm absorbance is directly proportional to the number of living cells in culture.
(§3) Using the MTS assay, cytotoxicity (defined as “growth inhibition” and not necessarily versus renal proximal tubular […] cells (normal cells) was determined as shown in the following Tables. “Sem” refers to standard error of the mean, which is calculated as the standard deviation divided by the square root of the sample size; the numbers reflect triplicate replicates. Dilutions of the compounds were prepared in DMSO and straight DMSO was used as a control corresponding to 100% metabolic activity.

K562 cells = assay: MTS assay, cytotoxicity (growth inhibition) on K562; type: cell-based, human; conditions: for Metabolic Activity K562: MTS, 3-6 days, DMSO control = 100%
Method: The cell line is widely available, e.g., from American Type Culture Collection (“ATCC”; Manassas, Va., USA; cat# CCL-243) and can be propogated in a variety of media, e.g., ATCC's Iscove's modified Dulbecco's medium with 4 mM L-glutamine adjusted to contain 1.5 g/L sodium bicarbonate, 90%; fetal bovine serum, 10%; 37C.
as §1, §2, §3

[1] = tested on: bcr-abl-negative leukemia lines; conditions: mean of four cell lines; read-out: mean IC50 in a panel of four bcr-abl-negative leukemia lines; cited from earlier work
[2] = tested on: bcr-abl expressing leukemia cell lines; conditions: average of six cell lines; read-out: IC50 averaged in six bcr-abl expressing leukemia cell lines; cited from earlier work
[3] = Homo sapiens, K562, read-out: K562 IC50
[4] = separate study, compared with compound 237

C=CCNC1=C2C[C@@H](C)C[C@H](OC)[C@H](O)[C@@H](C)/C=C(\C)[C@H](OC(N)=O)[C@@H](OC)/C=C\C=C(/C)C(=O)NC(=CC1=O)C2=O [CF7, 17-allylamino-17-demethoxygeldanamycin]
Metabolic Activity RPTEC (RPTEC; 0.0003 uM): 98.69% | Metabolic Activity RPTEC (RPTEC; 0.0010 uM): 92.26% | Metabolic Activity RPTEC (RPTEC; 0.0030 uM): 92.73% | Metabolic Activity RPTEC (RPTEC; 0.0100 uM): 91.81% | Metabolic Activity RPTEC (RPTEC; 0.0300 uM): 86.40% | Metabolic Activity RPTEC (RPTEC; 0.1000 uM): 86.46% | Metabolic Activity RPTEC (RPTEC; 0.3000 uM): 58.03% | Metabolic Activity RPTEC (RPTEC; 1.0000 uM): 34.01% | Metabolic Activity RPTEC (RPTEC; 3.0000 uM): 22.01% | Metabolic Activity RPTEC (RPTEC; 10.0000 uM): 20.10% | IC50 (RPTEC; normal cells, MTS assay): 400 nM | Metabolic Activity K562 (K562 cells; 0.0003 uM): 88.00% | Metabolic Activity K562 (K562 cells; 0.0010 uM): 83.81% | Metabolic Activity K562 (K562 cells; 0.0030 uM): 83.00% | Metabolic Activity K562 (K562 cells; 0.0100 uM): 85.94% | Metabolic Activity K562 (K562 cells; 0.0300 uM): 80.12% | Metabolic Activity K562 (K562 cells; 0.1000 uM): 44.06% | Metabolic Activity K562 (K562 cells; 0.3000 uM): 14.40% | Metabolic Activity K562 (K562 cells; 1.0000 uM): 9.51% | Metabolic Activity K562 (K562 cells; 3.0000 uM): 8.12% | Metabolic Activity K562 (K562 cells; 10.0000 uM): 7.89% | IC50 (K562 cells; bcr-abl fusion protein cancer line, MTS assay, read-out: K562 IC50): 70 nM

CCCNC/C=C/CNC1=C2CC(C)CC(OC)C(O)C(C)/C=C(\C)C(OC(N)=O)C(OC)/C=C\C=C(/C)C(=O)NC(=CC1=O)C2=O (stereo not shown) [Compound 481]
IC50 (RPTEC; Homo sapiens, RPTEC): 4000 nM | IC50 (K562 cells; [3]): 400 nM

COC1/C=C\C=C(/C)C(=O)NC2=CC(=O)C(NCCN(C)CCNC3=C4CC(C)CC(OC)C(O)C(C)/C=C(\C)C(OC(N)=O)C(OC)/C=C\C=C(/C)C(=O)NC(=CC3=O)C4=O)=C(CC(C)CC(OC)C(O)C(C)/C=C(\C)C1OC(N)=O)C2=O (stereo not shown) [Compound 483]
IC50 (RPTEC; Homo sapiens, RPTEC): 1000 nM | IC50 (K562 cells; Homo sapiens, K562, bcr-abl fusion protein cancer line, MTS assay, read-out: K562 IC50): 70 nM

COC1/C=C\C=C(/C)C(=O)NC2=CC(=O)C(NCCCNCCCNC3=C4CC(C)CC(OC)C(O)C(C)/C=C(\C)C(OC(N)=O)C(OC)/C=C\C=C(/C)C(=O)NC(=CC3=O)C4=O)=C(CC(C)CC(OC)C(O)C(C)/C=C(\C)C1OC(N)=O)C2=O (stereo not shown) [Compound 237]
IC50 (RPTEC; Homo sapiens, RPTEC): 4000 nM | IC50 (K562 cells; [3]): 100 nM

COC1/C=C\C=C(/C)C(=O)NC2=CC(=O)C(NCCCN(C)CCCNC3=C4CC(C)CC(OC)C(O)C(C)/C=C(\C)C(OC(N)=O)C(OC)/C=C\C=C(/C)C(=O)NC(=CC3=O)C4=O)=C(CC(C)CC(OC)C(O)C(C)/C=C(\C)C1OC(N)=O)C2=O (stereo not shown) [Compound 208]
IC50 (RPTEC; Homo sapiens, RPTEC): 1000 nM | IC50 (K562 cells; [3]): 50 nM

CO[C@H]1[C@@H](OC)C[C@H](C)[C@@H](OC)C2=CC(=O)C=C(NC(=O)/C(C)=C/C=C\[C@H](OC)[C@@H](OC(N)=O)/C(C)=C/[C@@H]1C)C2=O [herbimycin A]
IC50 [1]: 399 nM | IC50 [2]: 29.3 nM

C[C@@H]1C[C@H]2O[C@@H]2/C=C\C=C\C(=O)Cc2c(Cl)c(O)cc(O)c2C(=O)O1 [radicicol]
effect on RPTEC (separate study) (RPTEC; [4]): approximating those obtained for compound 237 | effect on K562 (separate study) (K562 cells; [4]): approximating those obtained for compound 237
